Test results reported in US8629100B2, “Method of inhibiting clostridium difficile by administration of oritavancin” (The Medicines Company, priority 2007, dated 2014).
Entries after “also recorded” stand apart in the source; their conditions may differ.

Tests used:
[1] = system: indigenous gut microflora; assay: In vitro human gut model: indigenous gut microflora counts; assay type: cell-based; settings: for Decline in Bacteroides populations / Decline in enterococcal populations: following instillation, period E, vessel 3
Excerpt: (§1) The gut model was designed to allow the study of the intestinal microflora in the low pH, carbohydrate-excess conditions of the proximal colon and the carbohydrate-depleted, non-acidic conditions of the distal colon (Macfarlane et al., Microb Ecol 1998; 35: 180-7). Microbiological and physicochemical measurements within the gut model vessels were validated against the intestinal contents of sudden death victims (Macfarlane et al., Microb Ecol 1998; 35: 180-7). Each gut model consists of three fermentation vessels connected in a weir cascade system top-fed with growth medium at a controlled rate (D=0.015 h^−1). Vessels were sparged with oxygen-free nitrogen to ensure anaerobiosis, heated via a water-jacketed system (37° C.) and maintained at specific pH using fermenter controller units (Biosolo 3, Brighton Systems, UK) delivering 0.5 M HCl/NaOH. Vessel 1 (280 mL) was operated at pH 5.5 and high substrate availability, thus reflecting the conditions within the proximal colon, while vessels 2 and 3 (300 mL) were operated at pH 6.2 and 6.8, respectively, with low substrate availability, thus reflecting the conditions within the distal colon. The gut model was primed with faecal slurry ˜10% (w/v) and allowed to equilibrate with respect to bacterial populations for 14 days.
(§2) Faecal samples were collected from five healthy elderly (>65 years) volunteers and immediately transported to the laboratory under anaerobic conditions (GasPak, Oxoid, Basingstoke, UK). […] C. difficile-negative faeces were pooled and a coarse-filtered slurry (˜10% w/v) in sterile pre-reduced phosphate-buffered saline was prepared. Vessels of the gut models were filled to approximately two-thirds volume, and the growth medium pumps were started.
(§3) Major culturable components of the indigenous gut microflora and C. difficile were enumerated by viable counting (log10 cfu/mL) on selective and non-selective agars as reported previously (Freeman et al., J Antimicrob Chemother 2005; 56: 717-25). Bacterial groups enumerated were: total facultative anaerobes, facultatively anaerobic lactose fermenters, total anaerobes, bifidobacteria, Bacteroides fragilis group, total clostridia, lactobacilli, enterococci, total C. difficile and C. difficile spores. C. difficile cytotoxin production was quantified using a Vero cell cytotoxicity assay as described previously (Freeman et al., J Antimicrob Chemother 2003; 52: 96-102). Cytotoxin titres were expressed in log10 relative units (RU). Only C. difficile total bacterial counts, spore counts and cytotoxin titres were enumerated in vessel 1 of the gut model.
(§4) The use of the gut model to evaluate therapeutic interventions for CDI has been described previously (Freeman et al., J Antimicrob Chemother 2007; 60: 83-91; Freeman et al., J Antimicrob Chemother 2005; 56: 717-25). Briefly, following inoculation of each gut model with the faecal slurry, no further interventions were made for 13 days (period A). During period A, bacterial populations were enumerated every 2 days. Next (day 14), vessel 1 of each gut model was inoculated with a single inoculum of ˜10^7 cfu C. difficile PCR ribotype 027 spores (Freeman et al., J Antimicrob Chemother 2003; 52: 96-102), with no further interventions for 7 days (period B). From this point onwards, bacterial populations were enumerated daily.

[2] = system: C. difficile PCR ribotype 001 (vegetative, spores); assay: Growth on antibiotic-exposed cellulose acetate filters (Example 3C); assay type: cell-based; settings: for Growth of vegetative C. difficile on filters through which antibiotic had been filtered: PCR ribotype 001 overnight culture, anaerobic incubation; for Growth of C. difficile spores on filters through which antibiotic had been filtered: PCR ribotype 001 spores
Experimental: One mL solutions (containing no C. difficile spores) were processed as in Experiment 2B and filters placed onto Braziers CCEY agar. Onto the filters were inoculated 2×20 μL of:
a) Vegetative C. difficile (an overnight culture of PCR ribotype 001)
b) C. difficile spores (PCR ribotype 001), or
Growth/no growth was recorded following anaerobic incubation.

[3] = system: C. difficile PCR ribotype 027 spores; assay: Phase-contrast microscopy of spore germination/outgrowth; assay type: cell-based; settings: 10 mg/L for 2 h, washed 3x in PBS
Experimental: C. difficile spores were also exposed to 10 mg/L antimicrobial for 2 h, washed 3× in sterile PBS, re-suspended and inoculated into Brazier's broth medium (pH 7). Samples were removed at 2, 4, 6, 24, 32 and 48 h. Slides were viewed under phase-contrast microscopy and percentages of phase-bright spores, phase-dark spores and vegetative cells were recorded (FIG. 4).
Statistical analyses were performed by transforming percentage data using an Arcsin Transformation and analysed using a Wilcoxon signed rank test. P<0.05 was considered statistically significant. Supra-MIC concentrations of all antimicrobials prevented outgrowth but not germination of C. difficile spores.

[4] = system: C. difficile spores (PCR ribotypes 001, 106 and 027); assay: Viability (recovery) of spores after antibiotic exposure, cellulose acetate filtration (Examples 3A, 3B); assay type: cell-based
Experimental: The experiments were in general performed by mixing C. difficile spores with an antibiotic, filtering the solution through cellulose acetate filters to collect the spores, applying the spore-containing filters to nutrient agar, and determining the number of spores remaining on the filters after a selected period of time.
Therefore, the initial experiment included dilution of antimicrobial-containing spore suspensions prior to filtration and washing. Reaction volumes were 1 mL for all antimicrobial/control solutions.
1 mL of control (de-ionised water+/−Tween-80) and test (antimicrobial containing) solutions were inoculated with 10 μL C. difficile spores (3 strains; PCR ribotypes 001, 106 and 027). Spore suspensions (time=1 min or 30 min) were transferred to filtration cupules and the appropriate volume of diluent (sterile de-ionised water+/−Tween-80) was added to achieve the dilution factors noted above. Samples were filtered onto cellulose acetate filters and washed with a further 50 mL of the appropriate diluent. Filters were transferred aseptically to Braziers CCEY agar containing 5 mg/L lysozyme and 2% lysed horse blood. This procedure was completed in duplicate. The culture media were incubated in an anaerobic atmosphere at 37° C. for 48 h and the numbers of C. difficile colonies were recorded.
Diluent was first added to filtration cupules. 1 mL reactions were then added to the appropriate diluent (1 min and 30 min after reaction formation) and filtered onto cellulose acetate filters. The filters were washed with 50 mL of the appropriate diluent. The filters were then transferred aseptically to Braziers CCEY agar containing 5 mg/L lysozyme and 2% lysed horse blood. This procedure was completed in duplicate. Culture media were incubated in an anaerobic atmosphere at 37° C. for 48 h and the numbers of C. difficile colonies recorded

[5] = system: C. difficile PCR ribotype 027; assay: In vitro triple-stage chemostat human gut model of clindamycin-induced CDI; settings: for Decline of cytotoxin titres during instillation: 7 days; for Recrudescence of C. difficile spore germination, proliferation and cytotoxin production: after concentrations declined below limits of detection
Excerpt: A single isolate of C. difficile PCR ribotype 027 was investigated. This isolate was a clinical strain recovered during an epidemic of CDI at the Maine Medical Centre (Portland, USA) in 2005. It was supplied courtesy of Dr. Rob Owens and ribotyped at the Anaerobe Reference Laboratory (Cardiff, Wales, UK) by Dr Jon Brazier.
as §1, §2, §3, §4

[6] = system: C. difficile (CD) ATCC 43255; assay: Hamster model of CDI, oral administration; assay type: in vivo, Syrian golden hamsters; settings: for Toxins A and B in caecal contents: ORI 100 mg/kg (PEG400) on Day 20 PI, VA 50 mg/kg once daily
[7] = Example 3A: diluent added after reaction solutions, 1 min and 30 min exposure
[8] = Example 3B: diluent added to cupules before reaction solutions, 1 min and 30 min
[9] = day 2 of instillation (64 mg/L two times daily), vessel 3

With `CN[C@H](CC(C)C)C(=O)N[C@H]1C(=O)N[C@@H](CC(N)=O)C(=O)N[C@H]2C(=O)N[C@H]3C(=O)N[C@H](C(=O)N[C@H](C(=O)O)c4cc(O)cc(O)c4-c4cc3ccc4O)[C@H](O)c3ccc(c(Cl)c3)Oc3cc2cc(c3O[C@@H]2O[C@H](CO)[C@@H](O)[C@H](O)[C@H]2O[C@H]2C[C@](C)(N)[C@H](O)[C@H](C)O2)Oc2ccc(cc2Cl)[C@H]1O` [vancomycin] the “Decline in Bacteroides populations” value [1] was roughly 6 log10 cfu/mL, the “Decline in enterococcal populations” value [1] was roughly 1 log10 cfu/mL and the “Bifidobacteria lower than steady-state (period A) after cessation of instillation” value ([1]; period F) was roughly 2 log10 cfu/mL. For the same compound, the “Growth of vegetative C. difficile on filters through which antibiotic had been filtered” value [2] was “grew”, the “Growth of C. difficile spores on filters through which antibiotic had been filtered” value [2] was “good growth” and the “Outgrowth of C. difficile spores prior-exposed to antimicrobial” value [3] was “not observed”. For the same compound, the “Recovery of C. difficile spores” value [4, 7] was 25-60 % of controls, the “Recovery of C. difficile spores” value [4, 8] was 70-80 % of controls and the “Time C. difficile remained as spores before recurrent germination, proliferation and cytotoxin production” value ([5]; after cessation of instillation, vessel 2) was 12 days. For the same compound, the “Time C. difficile remained as spores before recurrent germination, proliferation and cytotoxin production” value ([5]; after cessation of instillation, vessel 3) was 13 days, the “Effect on C. difficile spore counts” value ([5]; during instillation, period E) was “unaffected” and the “Decline of cytotoxin titres during instillation” value ([5]; period E) was 3 RU. For the same compound, the “C. difficile total counts by the end of the experiment” value ([5]; period F) was roughly 6 login cfu/mL, the “Cytotoxin titres by the end of the experiment” value ([5]; period F) was 5 RU and the “Recrudescence of C. difficile spore germination, proliferation and cytotoxin production” value ([5]; period F) was “Recrudescence”. For the same compound, the “Toxins A and B in caecal contents” value [6] was “High level”.

In the case of `CN[C@H](CC(C)C)C(=O)N[C@H]1C(=O)N[C@@H](CC(N)=O)C(=O)N[C@H]2C(=O)N[C@H]3C(=O)N[C@H](C(=O)N[C@H](C(=O)O)c4cc(O)cc(O)c4-c4cc3ccc4O)[C@H](O[C@H]3C[C@](C)(N)[C@@H](O)[C@H](C)O3)c3ccc(c(Cl)c3)Oc3cc2cc(c3O[C@@H]2O[C@H](CO)[C@@H](O)[C@H](O)[C@H]2O[C@H]2C[C@](C)(NCc3ccc(-c4ccc(Cl)cc4)cc3)[C@@H](O)[C@H](C)O2)Oc2ccc(cc2Cl)[C@H]1O` [oritavancin, N-(4-(4-chlorophenyl)benzyl)A82846B], the “Decline in Bacteroides populations” value [1] is reported as roughly 1 log10 cfu/mL, the “Decline in enterococcal populations” value [1] is reported as roughly 2 log10 cfu/mL and the “Bifidobacteria after cessation of instillation” value ([1]; period F) is reported as “remained below the limits of detection”. The “Growth of vegetative C. difficile on filters through which antibiotic had been filtered” value [2] was “Greatly reduced numbers”, the “Growth of C. difficile spores on filters through which antibiotic had been filtered” value [2] was “unrecoverable” and the “Vegetative C. difficile recovered on exposed filters” value ([2]; on one plate) was 1 cfu. The “Outgrowth of C. difficile spores prior-exposed to antimicrobial” value [3] was “much lower than control; also recorded: significantly inhibited”, the “Recovery of C. difficile spores” value [4, 7] was 0 % of controls and the “Recovery of C. difficile spores” value [4, 8] was 0 % of controls. The “Longer time for cytotoxin titres to decline to undetectable levels than in vancomycin experiment” value [5] was 5 days, the “C. difficile total counts and spore counts” value ([5]; 1 day later (day 3 of instillation) and rest of period E, LOD ~1.22 log10 cfu/mL) was “below the limits of detection” and the “Time to cytotoxin titres below the limits of detection” value ([5]; after cessation of instillation, period F) was no more than 10 days. The “Decline of C. difficile spore counts” value [5, 9] was roughly 2 log10 cfu/mL, the “Decline of C. difficile total counts” value [5, 9] was roughly 2 log10 cfu/mL and the “Decline of cytotoxin titres during instillation” value ([5]; period E) was 3 RU. For the same compound, the “Recrudescence of C. difficile spore germination, proliferation and cytotoxin production” value ([5]; period F) was “No recrudescence”, the “C. difficile isolation after cessation of instillation” value ([5]; period F, remainder of the experiment) was “isolated sporadically at the limits of detection” and the “Survival up to 20 days PI” value ([6]; 100 mg/kg once daily oral from Day 2 for 5 days, formulated in PEG400) was “All the animals treated with ORI survived”. The “CD vegetative and spore cells in caecal content” value ([6]; 20 days PI, formulated in PEG400, LOD 1.47 (TC) and 1.77 (spores) Log 10 CFU/g) was “undetectable” and the “Toxins A and B in caecal contents” value [6] was “undetectable”.
